Columns and labels:
Type in all cases: ADME, organism-based
[1] = Oral bioavailability in rat at 5 mg/kg; conditions: in vivo
[2] = Volume of distribution at steady state in rat at 1 mg/kg, iv and 5 mg/kg, po; conditions: in vivo, read-out: Vdss
[3] = Half life in rat at 1 mg/kg, iv and 5 mg/kg, po; conditions: in vivo
[4] = Clearance in rat at 1 mg/kg, iv and 5 mg/kg, po; conditions: in vivo

Row | bioavailability [1] [%] | Vd [2] [L/kg] | half-life [3] [h] | clearance [4] [mL/min/kg] | Structure (SMILES)
1 | 11 | 19.6 | 3.3 | 51 | COc1cc(C(=O)NC2CCN(C)CC2)ccc1Nc1ncc2c(n1)N(C1CCCC1)CC(F)(F)C(=O)N2C
2 | 54 | 13.7 | 5.4 | 42 | COc1cc(C(=O)NC2CCN(C)CC2)c(F)cc1Nc1ncc2c(n1)N(C1CCCC1)CC(F)(F)C(=O)N2C [TAK-960]

Source: ChEMBL document CHEMBL2390946, “Discovery of TAK-960: an orally available small molecule inhibitor of polo-like kinase 1 (PLK1)” (Bioorg Med Chem Lett, 2013)
